{"source": "patent US12408667B2", "about": "“Herbicidal mixtures comprising isoxaflutole, pyroxasulfone and an imidazolinone herbicide; and their use in soybean and cotton cultures” (BASF SE, priority 2018, dated 2025)", "tested_on": "GALAP (Galium aparine)", "assay": "greenhouse experiment, herbicidal action, evaluated on a scale from 0 to 100", "type": "in vivo", "details": "pre-emergence greenhouse", "excerpt": "Synergism can be described as an interaction where the combined effect of two or more compounds is greater than the sum of the individual effects of each of the compounds. The presence of a synergistic effect in terms of percent control, between two mixing partners (X and Y) can be calculated using the Colby equation (Colby, S. R., 1967, Calculating Synergistic and Antagonistic Responses in Herbicide Combinations, Weeds, 15, 21-22): E=X+Y−XY/100\nWhen the observed combined control effect is greater than the expected (calculated) combined control effect (E), then the combined effect is synergistic.\nThe culture containers used were plastic flowerpots containing loamy sand with approximately 3.0% of humus as the substrate. The seeds of the test plants were sown separately for each species. For pre-emergence treatment, the active ingredients, which had been suspended or emulsified in water, were applied directly after sowing by means of finely distributing nozzles. The containers were irrigated gently to promote germination and growth and subsequently covered with transparent plastic hoods until the plants had rooted. This cover caused uniform germination of the test plants, unless this had been impaired by the active ingredients. […] During this time, the plants were tended, and their response to the individual treatments was evaluated. […]"}
{"compound": "CS(=O)(=O)c1cc(C(F)(F)F)ccc1C(=O)c1cnoc1C1CC1", "note": "[Isoxaflutole, isoxaflutole]", "values": [{"measurement": "Herbicidal action against GALAP, Found", "setting": "Isoxaflutole 12.5 g/ha alone, 20 days, scale 0 to 100", "value": 0}, {"measurement": "Herbicidal action against GALAP, Found", "setting": "Isoxaflutole 25 g/ha alone, test period 20 days, scale 0 to 100 (100 = no emergence or complete destruction)", "value": 0}]}
